Molecules are shown by their SMILES.

For this assay, the target named is Bile salt export pump (Homo sapiens, UniProt O95342). Nature of the assay: Inhibition of human BSEP expressed in fall armyworm sf9 cell plasma membrane vesicles assessed as reduction in vesicle-associated [3H]-taurocholate transport preincubated for 10 mins prior to ATP addition measured after 15 mins in presence of [3H]-taurocholate by topcount based membrane vesicle transport assay. It counts as ADME.
For the molecule `CC(C)(C)NC(=O)[C@H]1CC[C@H]2[C@@H]3CC[C@H]4NC(=O)C=C[C@]4(C)[C@H]3CC[C@]12C` [FINASTERIDE], the IC50 was determined as 28.2 µM.

As for `COc1ccc(Cl)cc1[C@]1(F)C(=O)Nc2cc(C(F)(F)F)ccc21` [FLINDOKALNER], the concentration for half-maximal inhibition (IC50) was > 135 µM.

Take `CCOC(=O)c1ncn2c1CN(C)C(=O)c1cc(F)ccc1-2` [FLUMAZENIL]: the IC50 is > 135 µM.

Consider `O=c1[nH]cc(F)c(=O)[nH]1` [FLUOROURACIL], for which the half-inhibitory concentration (IC50) was > 135 µM.

Regarding `CCOC(=O)Nc1ccc(NCc2ccc(F)cc2)nc1N` [FLUPIRTINE], the IC50 amounted to 35.5 µM.

Take `NC[C@@H]1O[C@H](O[C@H]2[C@@H](O)[C@H](O[C@@H]3[C@@H](O)[C@H](N)C[C@H](N)[C@H]3O[C@H]3O[C@H](CN)[C@@H](O)[C@H](O)[C@H]3N)O[C@@H]2CO)[C@H](N)[C@@H](O)[C@@H]1O` [FRAMYCETIN]: the IC50 was > 135 µM.

For `CC(=O)O[C@H]1C[C@@]2(C)[C@@H](C[C@@H](O)[C@H]3[C@@]4(C)CC[C@@H](O)[C@@H](C)[C@@H]4CC[C@@]32C)/C1=C(\CCC=C(C)C)C(=O)O` [FUSIDIC ACID], the IC50 was found to be 10.1 µM.

For `COc1ccc2c3c1O[C@H]1C[C@@H](O)C=C[C@@]31CCN(C)C2` [GALANTAMINE], the 50% inhibitory concentration (IC50) was > 135 µM.

Consider `Nc1nc(O)c2ncn(COC(CO)CO)c2n1` [GANCICLOVIR], for which the IC50 was > 135 µM.

For `Cc1ccc(C)c(OCCCC(C)(C)C(=O)O)c1` [GEMFIBROZIL], the IC50 is > 135 µM.

For `CCC1=C(C)CN(C(=O)NCCc2ccc(S(=O)(=O)NC(=O)N[C@H]3CC[C@H](C)CC3)cc2)C1=O` [GLIMEPIRIDE], the IC50 was found to be 15.7 µM.

For the molecule `N=C(N)NC(=O)Cc1c(Cl)cccc1Cl` [GUANFACINE], the concentration for half-maximal inhibition (IC50) was > 135 µM.

As for `CC(C)Cc1ccc(C(C)C(=O)O)cc1` (stereo unspecified) [IBUPROFEN], the half-maximal inhibitory concentration (IC50) is > 135 µM.

For the molecule `c1ccc2c(c1)OCC(C1=NCCN1)O2` (stereo unspecified) [IDAZOXAN], the IC50 was > 135 µM.

Consider `Cc1ccc(NC(=O)c2ccc(CN3CCN(C)CC3)cc2)cc1Nc1nccc(-c2cccnc2)n1` [IMATINIB], for which the concentration for half-maximal inhibition (IC50) was 25.1 µM.

`Nc1cc(-c2ccncc2)c[nH]c1=O` [INAMRINONE]: the concentration for half-maximal inhibition (IC50) was > 135 µM.

With `CC1Cc2ccccc2N1NC(=O)c1ccc(Cl)c(S(N)(=O)=O)c1` (stereo unspecified) [INDAPAMIDE], the IC50 is > 135 µM.

In the case of `O=C(NC1CCN(CCc2c[nH]c3ccccc23)CC1)c1ccccc1` [INDORAMIN], the half-inhibitory concentration (IC50) is > 135 µM.

Consider `CC(C)NNC(=O)c1ccncc1` [IPRONIAZID], for which the IC50 is > 135 µM.

Turning to `NNC(=O)c1ccncc1` [ISONIAZID], the half-inhibitory concentration (IC50) is > 135 µM.

Regarding `CCC(C)n1ncn(-c2ccc(N3CCN(c4ccc(OCC5COC(Cn6cncn6)(c6ccc(Cl)cc6Cl)O5)cc4)CC3)cc2)c1=O` (stereo unspecified) [ITRACONAZOLE], the 50% inhibitory concentration (IC50) came to 18 µM.

For `NC[C@H]1O[C@H](O[C@H]2[C@H](O)[C@@H](O[C@H]3O[C@H](CO)[C@@H](O)[C@H](N)[C@H]3O)[C@H](N)C[C@@H]2N)[C@H](O)[C@@H](O)[C@@H]1O` [KANAMYCIN], the half-inhibitory concentration (IC50) was > 135 µM.

Take `CNC1(c2ccccc2Cl)CCCCC1=O` (stereo unspecified) [KETAMINE]: the 50% inhibitory concentration (IC50) was > 135 µM.

In the case of `O=C(c1ccc(F)cc1)C1CCN(CCn2c(=O)[nH]c3ccccc3c2=O)CC1` [KETANSERIN], the IC50 is > 135 µM.

On to `Cc1c(OCC(F)(F)F)ccnc1C[S+]([O-])c1nc2ccccc2[nH]1` (stereo unspecified) [LANSOPRAZOLE], for which the 50% inhibitory concentration (IC50) was > 135 µM.

On to `CS(=O)(=O)CCNCc1ccc(-c2ccc3ncnc(Nc4ccc(OCc5cccc(F)c5)c(Cl)c4)c3c2)o1` [LAPATINIB], for which the IC50 amounted to 6.5 µM.

With `Cc1cccc(C)c1OCC(=O)N[C@@H](Cc1ccccc1)[C@@H](O)C[C@H](Cc1ccccc1)NC(=O)[C@H](C(C)C)N1CCCNC1=O` [LOPINAVIR], the IC50 was found to be 17.3 µM.

Turning to `CN(Cc1cnc2nc(N)nc(N)c2n1)c1ccc(C(=O)N[C@@H](CCC(=O)O)C(=O)O)cc1` [METHOTREXATE], the IC50 was > 135 µM.

`C[C@H]1C[C@@H]2[C@H]([C@@H](O)C[C@@]3(C)[C@H]2CC[C@]3(O)C(=O)CO)[C@@]2(C)C=CC(=O)C=C12` [METHYLPREDNISOLONE]: the IC50 is > 135 µM.

With `CCN(CC)CCNC(=O)c1cc(Cl)c(N)cc1OC` [METOCLOPRAMIDE], the concentration for half-maximal inhibition (IC50) was > 135 µM.

In the case of `COc1ccc2cc1Oc1cc3c(cc1OC)CC[N+](C)(C)[C@H]3Cc1ccc(cc1)Oc1c(OC)c(OC)cc3c1[C@@H](C2)[N+](C)(C)CC3` [METOCURINE], the IC50 was > 135 µM.

As for `COCC(=O)O[C@]1(CCN(C)CCCc2nc3ccccc3[nH]2)CCc2cc(F)ccc2[C@@H]1C(C)C` [MIBEFRADIL], the half-maximal inhibitory concentration (IC50) was 25 to 45 µM.

As to `Cc1ncc2n1-c1ccc(Cl)cc1C(c1ccccc1F)=NC2` [MIDAZOLAM], the 50% inhibitory concentration (IC50) amounted to 41.7 µM.

Regarding `CN(C)C(=O)CCSC(SCCC(=O)O)c1cccc(/C=C/c2ccc3ccc(Cl)cc3n2)c1` (stereo unspecified) [MK-571], the IC50 was 3.5 µM.

Regarding `O=C(NCCN1CCOCC1)c1ccc(Cl)cc1` [MOCLOBEMIDE], the IC50 is > 135 µM.

For `CN1CC[C@]23c4c5ccc(O)c4O[C@H]2[C@@H](O)C=C[C@H]3[C@H]1C5` [MORPHINE], the IC50 was > 135 µM.

Regarding `CC(C)(C)NCC(O)COc1cccc2c1CC(O)C(O)C2` (stereo unspecified) [NADOLOL], the half-inhibitory concentration (IC50) is > 135 µM.

For `C=CCN1CC[C@]23c4c5ccc(O)c4O[C@H]2C(=O)CC[C@@]3(O)[C@H]1C5` [NALOXONE], the IC50 is > 135 µM.

On to `COc1ccc2cc([C@H](C)C(=O)O)ccc2c1` [NAPROXEN], for which the 50% inhibitory concentration (IC50) was > 135 µM.

For `CCc1nn(CCCN2CCN(c3cccc(Cl)c3)CC2)c(=O)n1CCOc1ccccc1` [NEFAZODONE], the IC50 is 6.1 µM.

As for `CN1CCOC(c2ccccc2)c2ccccc2C1` (stereo unspecified) [NEFOPAM], the half-inhibitory concentration (IC50) is > 135 µM.

On to `CN(C)C(=O)Oc1cccc([N+](C)(C)C)c1` [NEOSTIGMINE], for which the concentration for half-maximal inhibition (IC50) was > 135 µM.

Regarding `Cc1ccnc2c1NC(=O)c1cccnc1N2C1CC1` [NEVIRAPINE], the IC50 was > 135 µM.

Turning to `COC(=O)C1=C(C)NC(C)=C(C(=O)OCCN(C)Cc2ccccc2)C1c1cccc([N+](=O)[O-])c1` (stereo unspecified) [NICARDIPINE], the half-maximal inhibitory concentration (IC50) amounted to 7.9 µM.

For the molecule `CN1CCC[C@H]1c1cccnc1` [NICOTINE], the half-inhibitory concentration (IC50) was > 135 µM.

`O=C1CN=C(c2ccccc2)c2cc([N+](=O)[O-])ccc2N1` [NITRAZEPAM]: the IC50 was > 135 µM.

Consider `CCOC(=O)C1=C(C)NC(C)=C(C(=O)OC)C1c1cccc([N+](=O)[O-])c1` (stereo unspecified) [NITRENDIPINE], for which the IC50 fell in the range of 25 to 45 µM.

On to `CNCCC=C1c2ccccc2CCc2ccccc21` [NORTRIPTYLINE], for which the IC50 was > 135 µM.

As for `COc1ccc2[nH]c([S+]([O-])Cc3ncc(C)c(OC)c3C)nc2c1` (stereo unspecified) [OMEPRAZOLE], the half-maximal inhibitory concentration (IC50) lay within 75 to 105 µM.

With `Cc1nccn1CC1CCc2c(c3ccccc3n2C)C1=O` (stereo unspecified) [ONDANSETRON], the 50% inhibitory concentration (IC50) was > 135 µM.

Regarding `COc1ccc(Cc2nccc3cc(OC)c(OC)cc23)cc1OC` [PAPAVERINE], the half-maximal inhibitory concentration (IC50) is > 135 µM.

For the molecule `CCn1cc(C(=O)O)c(=O)c2cc(F)c(N3CCN(C)CC3)cc21` [PEFLOXACIN], the IC50 was > 135 µM.

On to `N=C(N)c1ccc(OCCCCCOc2ccc(C(=N)N)cc2)cc1` [PENTAMIDINE], for which the half-inhibitory concentration (IC50) was > 135 µM.

With `CC(=O)CCCCn1c(=O)c2c(ncn2C)n(C)c1=O` [PENTOXIFYLLINE], the half-maximal inhibitory concentration (IC50) is > 135 µM.

Consider `OCCN1CCN(CCCN2c3ccccc3Sc3ccc(Cl)cc32)CC1` [PERPHENAZINE], for which the IC50 was > 135 µM.

Turning to `CCOc1ccc(NC(C)=O)cc1` [PHENACETIN], the IC50 was > 135 µM.

In general, IC50 refers to the concentration needed to halve the response being measured.

Source of the values: ChEMBL document CHEMBL4011581, “Interference with bile salt export pump function is a susceptibility factor for human liver injury in drug development” (Toxicol Sci, 2010).
